Where a name gives a salt, the structure may show the parent alone.
Experiments:
[1] = target: T1, human GSK3α (Homo sapiens, UniProt P49840); test: In vitro enzymatic activity assay, GSK3α; assay type: biochemical; settings: 1.0 mM ATP, 1.0 μM peptide substrate, 120 min, 25° C, read-out: Enzyme GSK3α (IC50)
T1 construct: Full length human GSK3α or GSK3B expressed as N-terminal GST fusion proteins; GST (N); purchased Carna Biosciences (Japan); host or cells: baculovirus host

[2] = target: T2, GSK3A (Homo sapiens, UniProt P49840); test: NanoBRET cellular target engagement assay, Nanoluc-GSK3A in HEK293 cells; assay type: cell-based; settings: NanoBRET GSK3α IC50, HEK293 cells, tracer K-8, 2 hours, 37° C
T2 construct: expressed in transfected cells

[3] = target: T3, GSK3B (Homo sapiens, UniProt P49841); test: NanoBRET cellular target engagement assay, Nanoluc-GSK3B in HEK293 cells; assay type: cell-based; design: expressed in transfected cells; settings: NanoBRET GSK3β IC50, HEK293 cells, tracer K-8, 2 hours, 37° C
[4] = target: T3, GSK3B; test: In vitro enzymatic activity assay, GSK3β; assay type: biochemical; design: Full length human GSK3α or GSK3B expressed as N-terminal GST fusion proteins; GST (N); purchased Carna Biosciences (Japan); host or cells: baculovirus host; settings: 1.0 mM ATP, 1.0 μM peptide substrate, 120 min, 25° C, read-out: Enzyme GSK3β (IC50)

T3 sequence (P49841 whole entry, the tested form may be a part): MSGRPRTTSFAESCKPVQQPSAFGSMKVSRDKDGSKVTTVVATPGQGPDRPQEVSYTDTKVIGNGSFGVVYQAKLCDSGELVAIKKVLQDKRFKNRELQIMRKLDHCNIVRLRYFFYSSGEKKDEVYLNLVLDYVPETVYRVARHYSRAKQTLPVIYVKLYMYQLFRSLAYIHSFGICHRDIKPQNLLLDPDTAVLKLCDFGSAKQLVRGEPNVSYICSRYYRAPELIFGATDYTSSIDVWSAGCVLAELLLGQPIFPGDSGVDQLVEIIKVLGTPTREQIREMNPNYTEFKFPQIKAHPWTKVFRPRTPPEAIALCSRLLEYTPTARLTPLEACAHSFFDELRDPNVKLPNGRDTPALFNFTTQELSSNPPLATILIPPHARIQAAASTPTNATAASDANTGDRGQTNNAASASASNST
T2 sequence (P49840 whole entry): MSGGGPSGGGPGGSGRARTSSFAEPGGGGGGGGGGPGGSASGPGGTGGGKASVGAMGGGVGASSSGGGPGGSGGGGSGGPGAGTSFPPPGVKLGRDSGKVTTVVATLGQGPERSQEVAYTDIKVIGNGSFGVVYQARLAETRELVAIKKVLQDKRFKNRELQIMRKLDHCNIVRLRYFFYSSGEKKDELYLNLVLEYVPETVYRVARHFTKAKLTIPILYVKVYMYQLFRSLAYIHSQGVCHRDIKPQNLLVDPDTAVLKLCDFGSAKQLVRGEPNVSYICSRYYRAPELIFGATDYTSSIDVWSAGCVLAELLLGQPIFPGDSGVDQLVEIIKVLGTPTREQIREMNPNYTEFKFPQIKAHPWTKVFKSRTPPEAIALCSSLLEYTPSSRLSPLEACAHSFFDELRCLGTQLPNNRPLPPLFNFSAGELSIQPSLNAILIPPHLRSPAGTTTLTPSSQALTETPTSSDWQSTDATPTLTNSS
T1 sequence (P49840 whole entry, the tested form may be a part): as the sequence (P49840 whole entry) above

SMILES | IC50 [1] [nM] | IC50 [2] [nM] | IC50 [3] [nM] | IC50 [4] [nM]
COc1cc(Cl)c(-n2cnc(N)c(C(=O)Nc3cncc([C@@H]4C[C@@H](C)N4)c3)c2=O)c(Cl)c1 (single isomer, unassigned) [Example 214, 4-amino-1-(2,6-dichloro-4-methoxyphenyl)-N-(5-((2S,4R)-4-methylazetidin-2-yl)pyridin-3-yl)-6-oxo-1,6-dihydropyrimidine-5-carboxamide formate or 4-amino-1-(2,6-dichloro-4-methoxyphenyl)-N-(5-((2R,4S)-4-methylazetidin-2-yl)pyridin-3-yl)-6-oxo-1,6-dihydropyrimidine-5-carboxamide formate] | 17.3 | 8.9 | 640 | 930
CCc1cc(C)c(-n2cnc(N)c(C(=O)Nc3cncc([C@@H](C)N)c3)c2=O)c(C)c1 (single isomer, unassigned) [Example 218, (R)-4-amino-N-(5-(1-aminoethyl)pyridin-3-yl)-1-(4-ethyl-2,6-dimethylphenyl)-6-oxo-1,6-dihydropyrimidine-5-carboxamide or (S)-4-amino-N-(5-(1-aminoethyl)pyridin-3-yl)-1-(4-ethyl-2,6-dimethylphenyl)-6-oxo-1,6-dihydropyrimidine-5-carboxamide] | 10.8 | 5.6 | 401 | 421
CCNCc1cncc(NC(=O)c2c(N)ncn(-c3c(Cl)cccc3Cl)c2=O)c1 [Example 5, 4-amino-1-(2,6-dichlorophenyl)-N-(5-((ethylamino)methyl)pyridin-3-yl)-6-oxo-1,6-dihydropyrimidine-5-carboxamide] | 8.3 | 6.2 | 383 | 378
CCNCc1cncc(NC(=O)c2c(N)ncn(-c3c(Cl)cc(OC(F)F)cc3Cl)c2=O)c1 [Example 10, 4-amino-1-(2,6-dichloro-4-(difluoromethoxy)phenyl)-N-(5-((ethylamino)methyl)pyridin-3-yl)-6-oxo-1,6-dihydropyrimidine-5-carboxamide] | 8.8 | 6.9 | 371 | 395
COc1cc(Cl)c(-n2cnc(N)c(C(=O)Nc3cncc(CNC(C)C)c3)c2=O)c(Cl)c1 [Example 20, 4-amino-1-(2,6-dichloro-4-methoxyphenyl)-N-(5-((isopropylamino)methyl)pyridin-3-yl)-6-oxo-1,6-dihydropyrimidine-5-carboxamide] | 14 | 7.2 | 396 | 685
CCNCc1cncc(NC(=O)c2c(N)ncn(-c3c(Cl)cc(C(F)(F)F)cc3Cl)c2=O)c1 [Example 22, 4-amino-1-(2,6-dichloro-4-(trifluoromethyl)phenyl)-N-(5-((ethylamino)methyl)pyridin-3-yl)-6-oxo-1,6-dihydropyrimidine-5-carboxamide] | 8.4 | 5.6 | 334 | 389
CCOc1cc(Cl)c(-n2cnc(N)c(C(=O)Nc3cncc(CNCCOC)c3)c2=O)c(Cl)c1 [Example 25, 4-amino-1-(2,6-dichloro-4-ethoxyphenyl)-N-(5-(((2-methoxyethyl)amino)methyl)pyridin-3-yl)-6-oxo-1,6-dihydropyrimidine-5-carboxamide] | 13.9 | 7.5 | 715 | 692
CCOc1cc(Cl)c(-n2cnc(N)c(C(=O)Nc3cnnc(C(N)=O)c3)c2=O)c(Cl)c1 [Example 28, 5-(4-amino-1-(2,6-dichloro-4-ethoxyphenyl)-6-oxo-1,6-dihydropyrimidine-5-carboxamido)pyridazine-3-carboxamide] | 9.6 | 9 | 699 | 320

Now those with a lower IC50 [1], led by results:

IC50 [1] [nM] | IC50 [2] [nM] | IC50 [3] [nM] | IC50 [4] [nM] | SMILES
7.2 | 8.5 | 690 | 500 | Nc1ncn(-c2c(Cl)cccc2Cl)c(=O)c1C(=O)Nc1cncc([C@H]2CCOCCN2)c1 (single isomer, unassigned) [Example 215, (R)—N-(5-(1,4-oxazepan-5-yl)pyridin-3-yl)-4-amino-1-(2,6-dichlorophenyl)-6-oxo-1,6-dihydropyrimidine-5-carboxamide or (S)—N-(5-(1,4-oxazepan-5-yl)pyridin-3-yl)-4-amino-1-(2,6-dichlorophenyl)-6-oxo-1,6-dihydropyrimidine-5-carboxamide]
7.8 | 8 | 424 | 305 | Cc1cccc(Cl)c1-n1cnc(N)c(C(=O)Nc2cccc([C@@H]3CCCN3)c2F)c1=O (single isomer, unassigned) [Example 217, (S)-4-amino-1-((S)-2-chloro-6-methylphenyl)-N-(2-fluoro-3-(pyrrolidin-2-yl)phenyl)-6-oxo-1,6-dihydropyrimidine-5-carboxamide or (R)-4-amino-1-((S)-2-chloro-6-methylphenyl)-N-(2-fluoro-3-(pyrrolidin-2-yl)phenyl)-6-oxo-1,6-dihydropyrimidine-5-carboxamide]
5.4 | 3.8 | 187 | 271 | CCOc1cc(Cl)c(-n2cnc(N)c(C(=O)Nc3cncc([C@@H](C)N)n3)c2=O)c(Cl)c1 (single isomer, unassigned) [Example 219, (R)-4-amino-N-(6-(1-aminoethyl)pyrazin-2-yl)-1-(2,6-dichloro-4-ethoxyphenyl)-6-oxo-1,6-dihydropyrimidine-5-carboxamide or (S)-4-amino-N-(6-(1-aminoethyl)pyrazin-2-yl)-1-(2,6-dichloro-4-ethoxyphenyl)-6-oxo-1,6-dihydropyrimidine-5-carboxamide]
2.1 | 4.6 | 148 | 99.2 | COc1cc(Cl)c(-n2cnc(N)c(C(=O)Nc3cc(F)cc([C@H]4CCCCN4)c3)c2=O)c(Cl)c1 (single isomer, unassigned) [Example 222, (R)-4-amino-1-(2,6-dichloro-4-methoxyphenyl)-N-(3-fluoro-5-(piperidin-2-yl)phenyl)-6-oxo-1,6-dihydropyrimidine-5-carboxamide or (S)-4-amino-1-(2,6-dichloro-4-methoxyphenyl)-N-(3-fluoro-5-(piperidin-2-yl)phenyl)-6-oxo-1,6-dihydropyrimidine-5-carboxamide]
7.2 | 6.5 | 352 | 292 | CN[C@H](C)c1cc(F)cc(NC(=O)c2c(N)ncn(-c3c(Cl)cccc3Cl)c2=O)c1 [Example 6, (R)-4-amino-1-(2,6-dichlorophenyl)-N-(3-fluoro-5-(1-(methylamino)ethyl)phenyl)-6-oxo-1,6-dihydropyrimidine-5-carboxamide trifluoroacetate]
6.4 | 4 | 231 | 318 | CCNCc1cncc(NC(=O)c2c(N)ncn(-c3c(Cl)cc(C(F)F)cc3Cl)c2=O)c1 [Example 14, 4-amino-1-(2,6-dichloro-4-(difluoromethyl)phenyl)-N-(5-((ethylamino)methyl)pyridin-3-yl)-6-oxo-1,6-dihydropyrimidine-5-carboxamide]
4.5 | 2.2 | 119 | 208 | COCc1cc(Cl)c(-n2cnc(N)c(C(=O)Nc3cncc(C(C)(C)N)c3)c2=O)c(Cl)c1 [Example 15, 4-amino-N-(5-(2-aminopropan-2-yl)pyridin-3-yl)-1-(2,6-dichloro-4-(methoxymethyl)phenyl)-6-oxo-1,6-dihydropyrimidine-5-carboxamide]
7.8 | 3.8 | 271 | 340 | CCNCc1cncc(NC(=O)c2c(N)ncn(-c3c(Cl)cc(OC)cc3Cl)c2=O)c1 [Example 17, 4-amino-1-(2,6-dichloro-4-methoxyphenyl)-N-(5-((ethylamino)methyl)pyridin-3-yl)-6-oxo-1,6-dihydropyrimidine-5-carboxamide]
3.2 | 2.6 | 145 | 217 | COc1cc(Cl)c(-n2cnc(N)c(C(=O)Nc3cncc(C4(N)CCCC4)c3)c2=O)c(Cl)c1 [Example 21, 4-amino-N-(5-(1-aminocyclopentyl)pyridin-3-yl)-1-(2,6-dichloro-4-methoxyphenyl)-6-oxo-1,6-dihydropyrimidine-5-carboxamide]
5 | 4.3 | 239 | 343 | Nc1ncn(-c2c(Cl)cc(C(F)(F)F)cc2Cl)c(=O)c1C(=O)Nc1cncc(CNCCO)c1 [Example 23, 4-amino-1-(2,6-dichloro-4-(trifluoromethyl)phenyl)-N-(5-(((2-hydroxyethyl)amino)methyl)pyridin-3-yl)-6-oxo-1,6-dihydropyrimidine-5-carboxamide]
5.5 | 4.4 | 269 | 327 | CCOc1cc(Cl)c(-n2cnc(N)c(C(=O)Nc3cncc(CNCCO)c3)c2=O)c(Cl)c1 [Example 26, 4-amino-1-(2,6-dichloro-4-ethoxyphenyl)-N-(5-(((2-hydroxyethyl)amino)methyl)pyridin-3-yl)-6-oxo-1,6-dihydropyrimidine-5-carboxamide]

Source: patent publication US20260327191A1, “GSK3a INHIBITORS AND METHODS OF USE THEREOF” (Blueprint Medicines Corporation, priority 2023, published 2026)
